The target of the test is T1, Tyrosinase (Homo sapiens) (UniProt P14679).
T1 sequence (whole entry): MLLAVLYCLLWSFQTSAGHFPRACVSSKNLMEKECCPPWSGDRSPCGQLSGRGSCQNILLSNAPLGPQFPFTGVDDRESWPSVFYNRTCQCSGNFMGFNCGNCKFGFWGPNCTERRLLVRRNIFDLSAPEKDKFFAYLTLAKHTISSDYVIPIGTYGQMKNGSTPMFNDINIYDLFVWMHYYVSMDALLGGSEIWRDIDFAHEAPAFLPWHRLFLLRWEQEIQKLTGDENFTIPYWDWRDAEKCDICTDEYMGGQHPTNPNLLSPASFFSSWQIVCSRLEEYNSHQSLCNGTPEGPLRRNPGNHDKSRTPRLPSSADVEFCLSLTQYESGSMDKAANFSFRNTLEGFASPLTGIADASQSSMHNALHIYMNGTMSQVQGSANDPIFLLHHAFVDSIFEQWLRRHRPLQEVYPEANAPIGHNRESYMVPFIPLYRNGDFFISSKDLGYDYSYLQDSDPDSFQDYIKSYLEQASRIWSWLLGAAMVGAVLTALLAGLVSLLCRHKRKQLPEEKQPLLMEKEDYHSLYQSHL
The test is described as follows: Inhibition of tyrosinase-mediated formation of melanin from tyrosine at 100 uM relative to control.

What is called inhibition is the relative decrease from the control value, in per cent. A high value points to a response far below the control. With `CC[C@H](C)[C@@H]1NC(=O)[C@H](Cc2ccc(O)cc2)N(C)C(=O)[C@H]([C@H](C)O)N2C(=O)[C@H](CC[C@H]2O)NC(=O)[C@H](CC(C)C)NC(=O)[C@@H](NC(=O)[C@H](CCC(N)=O)NC(=O)[C@H](CCc2ccc(O)cc2)NC(=O)[C@H](O)CO)[C@@H](C)OC1=O`, the inhibition is 55%.

For the origin of these results see ChEMBL document CHEMBL1151674, “Oscillapeptin G, a tyrosinase inhibitor from toxic Oscillatoria agardhii” (J Nat Prod, 1996).
